From PubChem BioAssay (NCI)
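Where inhibition never reached the appropriate level, the endpoint shown equals the highest concentration tested. Otherwise, values were interpolated linearly from a five-concentration, 48-hour dose response in 96-well plates. GI50 = concentration required for 50% inhibition of growth. TGI: concentration producing complete growth inhibition.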

Tests used:
Test in all cases: NCI anticancer screen, dose series, 48 h
786-0 renal = tested on: 786-0 renal
A498 renal = tested on: A498 renal
A549 NSCLC = tested on: A549 NSCLC
ACHN renal = tested on: ACHN renal
BT-549 breast = tested on: BT-549 breast
CAKI-1 renal = tested on: CAKI-1 renal
CCRF-CEM leukemia = tested on: CCRF-CEM leukemia
DU-145 prostate = tested on: DU-145 prostate
EKVX NSCLC = tested on: EKVX NSCLC
HCC-2998 colon = tested on: HCC-2998 colon
HCT-116 colon = tested on: HCT-116 colon
HCT-15 colon = tested on: HCT-15 colon
HL-60(TB) leukemia = tested on: HL-60(TB) leukemia
HOP-92 NSCLC = tested on: HOP-92 NSCLC
HS 578T breast = tested on: HS 578T breast
HT29 colon = tested on: HT29 colon
IGROV1 ovarian = tested on: IGROV1 ovarian
K-562 leukemia = tested on: K-562 leukemia
KM12 colon = tested on: KM12 colon
LOX IMVI melanoma = tested on: LOX IMVI melanoma
M14 melanoma = tested on: M14 melanoma
MALME-3M melanoma = tested on: MALME-3M melanoma
MCF7 breast = tested on: MCF7 breast
MDA-MB-231 breast = tested on: MDA-MB-231 breast
MDA-MB-435 = tested on: MDA-MB-435
MOLT-4 leukemia = tested on: MOLT-4 leukemia
NCI-H226 lung = tested on: NCI-H226 lung
NCI-H23 lung = tested on: NCI-H23 lung
NCI-H460 lung = tested on: NCI-H460 lung
NCI-H522 lung = tested on: NCI-H522 lung
NCI/ADR-RES ovarian = tested on: NCI/ADR-RES ovarian
OVCAR-3 ovarian = tested on: OVCAR-3 ovarian
OVCAR-4 ovarian = tested on: OVCAR-4 ovarian
OVCAR-5 ovarian = tested on: OVCAR-5 ovarian
OVCAR-8 ovarian = tested on: OVCAR-8 ovarian
PC-3 prostate = tested on: PC-3 prostate
RPMI-8226 leukemia = tested on: RPMI-8226 leukemia
RXF 393 renal = tested on: RXF 393 renal
SF-268 CNS = tested on: SF-268 CNS
SF-295 CNS = tested on: SF-295 CNS
SF-539 CNS = tested on: SF-539 CNS
SK-MEL-2 melanoma = tested on: SK-MEL-2 melanoma
SK-MEL-28 melanoma = tested on: SK-MEL-28 melanoma
SK-MEL-5 melanoma = tested on: SK-MEL-5 melanoma
SK-OV-3 ovarian = tested on: SK-OV-3 ovarian
SN12C renal = tested on: SN12C renal
SNB-19 CNS = tested on: SNB-19 CNS
SNB-75 CNS = tested on: SNB-75 CNS
SR leukemia = tested on: SR leukemia
SW-620 colon = tested on: SW-620 colon
T-47D breast = tested on: T-47D breast
TK-10 renal = tested on: TK-10 renal
UACC-257 melanoma = tested on: UACC-257 melanoma
UACC-62 melanoma = tested on: UACC-62 melanoma
UO-31 renal = tested on: UO-31 renal

`CCCCCC/C=C\CCCCCCCCCc1cc(O)cc(OC)c1O` gave a GI50 (786-0 renal) of 0.316 µM, a TGI (786-0 renal) of 1.57 µM and a GI50 (A498 renal) of 0.33 µM. It also gave a TGI (A498 renal) of 2.07 µM, a GI50 (A549 NSCLC) of 0.406 µM and a TGI (A549 NSCLC) of 14.6 µM. The GI50 (ACHN renal) was 0.318 µM, the TGI (ACHN renal) was 1.21 µM and the GI50 (BT-549 breast) was 0.375 µM. The TGI (BT-549 breast) was 1.45 µM, the GI50 (CAKI-1 renal) was 0.497 µM and the TGI (CAKI-1 renal) was 1.82 µM. It also gave a GI50 (CCRF-CEM leukemia) of 0.219 µM, a TGI (CCRF-CEM leukemia) of 1.29 µM and a GI50 (DU-145 prostate) of 0.575 µM. The TGI (DU-145 prostate) was 15.2 µM, the GI50 (EKVX NSCLC) was 0.335 µM and the TGI (EKVX NSCLC) was 1.74 µM. The GI50 (HCC-2998 colon) was 0.633 µM, the TGI (HCC-2998 colon) was 4.34 µM and the GI50 (HCT-116 colon) was 0.33 µM. The TGI (HCT-116 colon) was 1.25 µM, the GI50 (HCT-15 colon) was 0.285 µM and the TGI (HCT-15 colon) was 1.32 µM. For the same compound, the GI50 (HL-60(TB) leukemia) was 0.272 µM, the TGI (HL-60(TB) leukemia) was 0.717 µM and the GI50 (HOP-92 NSCLC) was 0.234 µM. It also gave a TGI (HOP-92 NSCLC) of 0.767 µM, a GI50 (HS 578T breast) of 0.599 µM and a TGI (HS 578T breast) of 5.18 µM. The GI50 (HT29 colon) was 0.353 µM, the TGI (HT29 colon) was 6.93 µM and the GI50 (IGROV1 ovarian) was 0.433 µM. The TGI (IGROV1 ovarian) was 1.64 µM, the GI50 (K-562 leukemia) was 0.298 µM and the TGI (K-562 leukemia) was 2.08 µM. It also gave a GI50 (KM12 colon) of 0.388 µM, a TGI (KM12 colon) of 2.3 µM and a GI50 (LOX IMVI melanoma) of 0.339 µM. It also gave a TGI (LOX IMVI melanoma) of 1.21 µM, a GI50 (M14 melanoma) of 0.403 µM and a TGI (M14 melanoma) of 3.65 µM. For the same compound, the GI50 (MALME-3M melanoma) was 0.444 µM, the TGI (MALME-3M melanoma) was 2.14 µM and the GI50 (MCF7 breast) was 0.292 µM. It also gave a TGI (MCF7 breast) of 2.49 µM, a GI50 (MDA-MB-231 breast) of 0.308 µM and a TGI (MDA-MB-231 breast) of 0.978 µM. The GI50 (MDA-MB-435) was 0.363 µM, the TGI (MDA-MB-435) was 1.96 µM and the GI50 (MOLT-4 leukemia) was 0.333 µM. The TGI (MOLT-4 leukemia) was 1.86 µM, the GI50 (NCI-H226 lung) was 0.37 µM and the TGI (NCI-H226 lung) was 1.49 µM. It also gave a GI50 (NCI-H23 lung) of 0.348 µM, a TGI (NCI-H23 lung) of 1.29 µM and a GI50 (NCI-H460 lung) of 0.323 µM. For the same compound, the TGI (NCI-H460 lung) was 10.1 µM, the GI50 (NCI-H522 lung) was 0.321 µM and the TGI (NCI-H522 lung) was 1.22 µM. For the same compound, the GI50 (NCI/ADR-RES ovarian) was 0.311 µM, the TGI (NCI/ADR-RES ovarian) was 1.27 µM and the GI50 (OVCAR-3 ovarian) was 0.401 µM. The TGI (OVCAR-3 ovarian) was 1.43 µM, the GI50 (OVCAR-4 ovarian) was 0.389 µM and the TGI (OVCAR-4 ovarian) was 1.69 µM. For the same compound, the GI50 (OVCAR-5 ovarian) was 0.402 µM, the TGI (OVCAR-5 ovarian) was 2.41 µM and the GI50 (OVCAR-8 ovarian) was 0.307 µM. It also gave a TGI (OVCAR-8 ovarian) of 6.5 µM, a GI50 (PC-3 prostate) of 0.308 µM and a TGI (PC-3 prostate) of 1.54 µM. For the same compound, the GI50 (RPMI-8226 leukemia) was 0.219 µM, the GI50 (RXF 393 renal) was 0.32 µM and the TGI (RXF 393 renal) was 1.38 µM. The GI50 (SF-268 CNS) was 0.441 µM, the TGI (SF-268 CNS) was 1.69 µM and the GI50 (SF-295 CNS) was 0.304 µM. It also gave a TGI (SF-295 CNS) of 1.37 µM, a GI50 (SF-539 CNS) of 0.377 µM and a TGI (SF-539 CNS) of 1.51 µM. The GI50 (SK-MEL-2 melanoma) was 0.494 µM, the TGI (SK-MEL-2 melanoma) was 2.41 µM and the GI50 (SK-MEL-28 melanoma) was 0.653 µM. The TGI (SK-MEL-28 melanoma) was 2.34 µM, the GI50 (SK-MEL-5 melanoma) was 0.329 µM and the TGI (SK-MEL-5 melanoma) was 1.18 µM. It also gave a GI50 (SK-OV-3 ovarian) of 0.402 µM, a TGI (SK-OV-3 ovarian) of 11.6 µM and a GI50 (SN12C renal) of 0.31 µM. It also gave a TGI (SN12C renal) of 1.5 µM, a GI50 (SNB-19 CNS) of 0.347 µM and a TGI (SNB-19 CNS) of 10.3 µM. It also gave a GI50 (SNB-75 CNS) of 0.317 µM, a TGI (SNB-75 CNS) of 1.44 µM and a GI50 (SR leukemia) of 0.344 µM. It also gave a TGI (SR leukemia) of 3.26 µM, a GI50 (SW-620 colon) of 0.371 µM and a TGI (SW-620 colon) of 1.81 µM. It also gave a GI50 (T-47D breast) of 0.349 µM, a TGI (T-47D breast) of 1.93 µM and a GI50 (TK-10 renal) of 0.664 µM. The TGI (TK-10 renal) was 2.65 µM, the GI50 (UACC-257 melanoma) was 0.474 µM and the TGI (UACC-257 melanoma) was 2.92 µM. The GI50 (UACC-62 melanoma) was 0.396 µM, the TGI (UACC-62 melanoma) was 1.95 µM and the GI50 (UO-31 renal) was 0.321 µM. For the same compound, the TGI (UO-31 renal) was 1.22 µM.
